Source: ChEMBL document CHEMBL1201862, “PubChem BioAssay data set” (2004)
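Step 1: Grow cells in 96-well plates. Step 2: Expose to compound for 48 hours at 5 concentrations. Step 3: Interpolate endpoints linearly; if unreached, use highest concentration. GI50 is the concentration that inhibits growth by half.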 Active and inactive are the calls of the source. Cut-off read from the data, not from the text of the source: active = GI50 up to about 1.1 µM and inactive = higher.

Legend:
Test in all cases: growth of human tumour cells (NCI), 48 h
[1] = tested on: SNB-75
[2] = tested on: PC-3
[3] = tested on: MCF7
[4] = tested on: ACHN
[5] = tested on: OVCAR-5
[6] = tested on: Hs-578T
[7] = tested on: K562
[8] = tested on: HL-60
[9] = tested on: SN12C
[10] = tested on: TK-10
[11] = tested on: DU-145
[12] = tested on: HCT-116
[13] = tested on: HOP-92
[14] = tested on: KM12
[15] = tested on: MDA-MB-231
[16] = tested on: HT-29
[17] = tested on: SK-MEL-5
[18] = tested on: NCI/ADR-RES
[19] = tested on: COLO 205

Row | SMILES | GI50 [1] | GI50 [2] | GI50 [3] | GI50 [4] | GI50 [5] | GI50 [6] | GI50 [7] | GI50 [8] | GI50 [9] | GI50 [10] | GI50 [11] | GI50 [12] | GI50 [13] | GI50 [14] | GI50 [15] | GI50 [16] | GI50 [17] | GI50 [18] | GI50 [19]
1 | COc1ccc(/C=N/CCC/N=C/c2ccc(OC)cc2O)c(O)c1 | 13.9 µM (inactive) | 42 µM (inactive) | 55.7 µM (inactive) | 48.6 µM (inactive) | 64.4 µM (inactive) | 22 µM (inactive) | 69 µM (inactive) | 39.9 µM (inactive) | 26.1 µM (inactive) | > 100 µM (inactive) | 37.8 µM (inactive) | 71.9 µM (inactive) | 17.6 µM (inactive) | 47.4 µM (inactive) | 38.7 µM (inactive) | 97.3 µM (inactive) | – | – | –
2 | CN1N=C(c2ccncc2)OC1c1ccccc1F (stereo unspecified) | – | > 100 µM (inactive) | – | > 100 µM (inactive) | > 100 µM (inactive) | > 100 µM (inactive) | > 100 µM (inactive) | > 100 µM (inactive) | > 100 µM (inactive) | > 100 µM (inactive) | > 100 µM (inactive) | > 100 µM (inactive) | > 100 µM (inactive) | > 100 µM (inactive) | > 100 µM (inactive) | > 100 µM (inactive) | > 100 µM (inactive) | > 100 µM (inactive) | > 100 µM (inactive)
3 | O=C(NCCNCCO)N/N=C/c1ccc([N+](=O)[O-])cc1 | 21.7 µM (inactive) | > 100 µM (inactive) | 48.9 µM (inactive) | > 100 µM (inactive) | > 100 µM (inactive) | 57.1 µM (inactive) | > 100 µM (inactive) | > 100 µM (inactive) | > 100 µM (inactive) | 90.8 µM (inactive) | > 100 µM (inactive) | > 100 µM (inactive) | – | > 100 µM (inactive) | > 100 µM (inactive) | > 100 µM (inactive) | > 100 µM (inactive) | > 100 µM (inactive) | > 100 µM (inactive)
4 | CC(C)(C)OC(=O)N[C@@H](Cc1ccccc1)C(=O)N1CC[C@@H](C(=O)N2[C@H]3CC4CC[C@@]3(CS2(=O)=O)C4(C)C)N1 | 39.9 µM (inactive) | 45.7 µM (inactive) | – | 64.9 µM (inactive) | > 100 µM (inactive) | 46.8 µM (inactive) | > 100 µM (inactive) | 75.5 µM (inactive) | 59 µM (inactive) | – | 79.6 µM (inactive) | 47.3 µM (inactive) | > 100 µM (inactive) | 79.1 µM (inactive) | 48 µM (inactive) | 97.3 µM (inactive) | 24.6 µM (inactive) | 62.5 µM (inactive) | 46.9 µM (inactive)
5 | O=C1c2scc(-c3ccc(F)cc3)c2-n2cccc21 | 6.4 µM (inactive) | 29.9 µM (inactive) | 21.2 µM (inactive) | 39.7 µM (inactive) | > 100 µM (inactive) | 20.3 µM (inactive) | – | – | 20.6 µM (inactive) | 45.3 µM (inactive) | 88.1 µM (inactive) | 18.2 µM (inactive) | – | 43 µM (inactive) | 24.7 µM (inactive) | 20.8 µM (inactive) | 22.4 µM (inactive) | 33 µM (inactive) | 44.9 µM (inactive)
6 | COC([C@@H](OC(=O)c1ccccc1)[C@H](OC(=O)c1ccccc1)C(O)COC(=O)c1ccccc1)n1cc(C)c(=O)[nH]c1=O (stereo partly specified) | 22.5 µM (inactive) | 4.83 µM (inactive) | 13 µM (inactive) | 31.6 µM (inactive) | 19.1 µM (inactive) | 28.4 µM (inactive) | 13.7 µM (inactive) | – | 43.2 µM (inactive) | 33.8 µM (inactive) | 44.5 µM (inactive) | 23.6 µM (inactive) | – | – | 40.6 µM (inactive) | 15.7 µM (inactive) | 11.7 µM (inactive) | 28.6 µM (inactive) | 22 µM (inactive)
7 | Oc1ccc(-c2nc(-c3cccnc3)c(-c3ccc(Cl)cc3)[nH]2)cc1O | 6.05 µM (inactive) | 9.2 µM (inactive) | 11.5 µM (inactive) | 9.95 µM (inactive) | 18.7 µM (inactive) | 12.2 µM (inactive) | > 100 µM (inactive) | 5.05 µM (inactive) | 13.2 µM (inactive) | 10.4 µM (inactive) | 22 µM (inactive) | 11.7 µM (inactive) | – | 8.97 µM (inactive) | 17.3 µM (inactive) | 14.6 µM (inactive) | 13 µM (inactive) | 14.1 µM (inactive) | 13.9 µM (inactive)
8 | NC(=S)NS(=O)(=O)c1ccc(F)cc1 | > 100 µM (inactive) | > 100 µM (inactive) | – | > 100 µM (inactive) | > 100 µM (inactive) | > 100 µM (inactive) | > 100 µM (inactive) | > 100 µM (inactive) | > 100 µM (inactive) | > 100 µM (inactive) | > 100 µM (inactive) | > 100 µM (inactive) | > 100 µM (inactive) | > 100 µM (inactive) | > 100 µM (inactive) | > 100 µM (inactive) | > 100 µM (inactive) | > 100 µM (inactive) | > 100 µM (inactive)
9 | Clc1ccccc1/C=C\C1(c2ccccc2)OCCO1 | 19 µM (inactive) | – | 2.77 µM (inactive) | 17.3 µM (inactive) | 20 µM (inactive) | 13.8 µM (inactive) | 16.7 µM (inactive) | 24.8 µM (inactive) | 18.1 µM (inactive) | 22.2 µM (inactive) | 16.7 µM (inactive) | 12.3 µM (inactive) | 28.9 µM (inactive) | 11 µM (inactive) | 12.7 µM (inactive) | 15.8 µM (inactive) | 19.8 µM (inactive) | 16.4 µM (inactive) | 21.3 µM (inactive)
10 | CCN(CC)C(=S)SNCc1ccc(S(N)(=O)=O)cc1 | 18.5 µM (inactive) | 13.1 µM (inactive) | – | 15.3 µM (inactive) | 14 µM (inactive) | 19.8 µM (inactive) | > 100 µM (inactive) | 4.54 µM (inactive) | 15.5 µM (inactive) | 25 µM (inactive) | 15.5 µM (inactive) | 13.2 µM (inactive) | 22.5 µM (inactive) | 14.9 µM (inactive) | 18.1 µM (inactive) | 8.47 µM (inactive) | 13.5 µM (inactive) | 18.9 µM (inactive) | 14.6 µM (inactive)
11 | COC(=O)C1=C(OC(=O)c2ccccc2)C(C(=O)OC)[C@@]2(O)[C@@H](C(=O)OC)[C@H](C)C[C@@H]1[C@@H]2C(=O)OC (stereo partly specified) | 22.9 µM (inactive) | 37.2 µM (inactive) | 29 µM (inactive) | 31.6 µM (inactive) | 47.2 µM (inactive) | 34.5 µM (inactive) | – | 20.1 µM (inactive) | 41.8 µM (inactive) | 75.9 µM (inactive) | 59.3 µM (inactive) | 36 µM (inactive) | – | 28.4 µM (inactive) | 37.7 µM (inactive) | 34.6 µM (inactive) | 31.9 µM (inactive) | 19 µM (inactive) | 17.6 µM (inactive)
12 | COC(=O)C1c2cc3c(c(O)c2CCC1(C)O)C(=O)c1c(O)cc2c(c1C3=O)OC1OC2(C)C(O)C(N(C)C)C1O (stereo unspecified) | 0.198 µM (active) | 0.474 µM (active) | 0.8 µM (active) | 0.172 µM (active) | 0.263 µM (active) | 0.338 µM (active) | 0.223 µM (active) | 1.36 µM (inactive) | 0.543 µM (active) | 0.369 µM (active) | 0.139 µM (active) | 0.245 µM (active) | – | 0.345 µM (active) | 0.207 µM (active) | 0.205 µM (active) | 0.385 µM (active) | 1.61 µM (inactive) | 0.36 µM (active)
13 | CCSC12OC3(CCCCCN3C1=O)C1C(=O)N(c3ccccc3)C(=O)C12 (stereo unspecified) | > 100 µM (inactive) | > 100 µM (inactive) | – | > 100 µM (inactive) | > 100 µM (inactive) | > 100 µM (inactive) | > 100 µM (inactive) | > 100 µM (inactive) | > 100 µM (inactive) | > 100 µM (inactive) | > 100 µM (inactive) | > 100 µM (inactive) | > 100 µM (inactive) | > 100 µM (inactive) | > 100 µM (inactive) | > 100 µM (inactive) | > 100 µM (inactive) | > 100 µM (inactive) | > 100 µM (inactive)
14 | Cc1cc(-c2ccc(Cl)cc2)c(C#N)c(=S)n1C1OC(CO)C(O)C(O)C1O (stereo unspecified) | 20.1 µM (inactive) | > 100 µM (inactive) | > 100 µM (inactive) | > 100 µM (inactive) | > 100 µM (inactive) | > 100 µM (inactive) | – | > 100 µM (inactive) | > 100 µM (inactive) | > 100 µM (inactive) | > 100 µM (inactive) | > 100 µM (inactive) | – | > 100 µM (inactive) | > 100 µM (inactive) | > 100 µM (inactive) | > 100 µM (inactive) | > 100 µM (inactive) | > 100 µM (inactive)
15 | COc1ccc2nccc(SCC(=O)O)c2c1 | – | > 100 µM (inactive) | – | > 100 µM (inactive) | > 100 µM (inactive) | > 100 µM (inactive) | > 100 µM (inactive) | > 100 µM (inactive) | > 100 µM (inactive) | > 100 µM (inactive) | > 100 µM (inactive) | > 100 µM (inactive) | > 100 µM (inactive) | > 100 µM (inactive) | > 100 µM (inactive) | > 100 µM (inactive) | > 100 µM (inactive) | > 100 µM (inactive) | –
16 | CCOC(=O)/C(=C\NCc1ccc2c(c1)OCO2)c1nc2ccccc2[nH]1 | 77.3 µM (inactive) | 50 µM (inactive) | 59.8 µM (inactive) | 38.4 µM (inactive) | 94.8 µM (inactive) | 56.8 µM (inactive) | 52.2 µM (inactive) | 48.8 µM (inactive) | > 100 µM (inactive) | 22.8 µM (inactive) | > 100 µM (inactive) | 39.8 µM (inactive) | 71.9 µM (inactive) | 42.7 µM (inactive) | – | 24.6 µM (inactive) | 25.8 µM (inactive) | 60.3 µM (inactive) | 32.7 µM (inactive)
